Test results taken from ChEMBL document CHEMBL5230089, “Small-Molecule Fms-like Tyrosine Kinase 3 Inhibitors: An Attractive and Efficient Method for the Treatment of Acute Myeloid Leukemia” (J Med Chem, 2020).

Tests used:
MV4-11 [1] = test: cells; conditions: Homo sapiens, MV4-11, 72 h
Description: Cytotoxicity against human MV4-11 cells assessed as cell viability incubated for 72 hrs by Cell titer-blue assay

[2] = biological target: Receptor-type tyrosine-protein kinase FLT3 (Homo sapiens, UniProt P36888); test: Binding affinity to human FLT3 assessed as dissociation constant
MOLM-13 [3] = test: cells; conditions: Homo sapiens, MOLM-13, 72 h
MV4-11 [4] = test: Antiproliferative activity against human MV4-11 cells assessed as reduction in cell proliferation measured after 24 hrs by MTT assay; type: functional, cell-based; conditions: MV4-11, 24 h
[5] = Antiproliferative activity against human MOLM16 cells expressing FLT3-ITD mutant assessed as inhibition of cell proliferation measured after 72 hrs by celltiter-glo luminescent cell viability assay; type: functional, cell-based, MOLM-16; conditions: MOLM16, 72 h
[6] = biological target: T1, Receptor-type tyrosine-protein kinase FLT3 (Homo sapiens, UniProt P36888); test: Inhibition of FLT3 (unknown origin)
T1 sequence (P36888 whole entry): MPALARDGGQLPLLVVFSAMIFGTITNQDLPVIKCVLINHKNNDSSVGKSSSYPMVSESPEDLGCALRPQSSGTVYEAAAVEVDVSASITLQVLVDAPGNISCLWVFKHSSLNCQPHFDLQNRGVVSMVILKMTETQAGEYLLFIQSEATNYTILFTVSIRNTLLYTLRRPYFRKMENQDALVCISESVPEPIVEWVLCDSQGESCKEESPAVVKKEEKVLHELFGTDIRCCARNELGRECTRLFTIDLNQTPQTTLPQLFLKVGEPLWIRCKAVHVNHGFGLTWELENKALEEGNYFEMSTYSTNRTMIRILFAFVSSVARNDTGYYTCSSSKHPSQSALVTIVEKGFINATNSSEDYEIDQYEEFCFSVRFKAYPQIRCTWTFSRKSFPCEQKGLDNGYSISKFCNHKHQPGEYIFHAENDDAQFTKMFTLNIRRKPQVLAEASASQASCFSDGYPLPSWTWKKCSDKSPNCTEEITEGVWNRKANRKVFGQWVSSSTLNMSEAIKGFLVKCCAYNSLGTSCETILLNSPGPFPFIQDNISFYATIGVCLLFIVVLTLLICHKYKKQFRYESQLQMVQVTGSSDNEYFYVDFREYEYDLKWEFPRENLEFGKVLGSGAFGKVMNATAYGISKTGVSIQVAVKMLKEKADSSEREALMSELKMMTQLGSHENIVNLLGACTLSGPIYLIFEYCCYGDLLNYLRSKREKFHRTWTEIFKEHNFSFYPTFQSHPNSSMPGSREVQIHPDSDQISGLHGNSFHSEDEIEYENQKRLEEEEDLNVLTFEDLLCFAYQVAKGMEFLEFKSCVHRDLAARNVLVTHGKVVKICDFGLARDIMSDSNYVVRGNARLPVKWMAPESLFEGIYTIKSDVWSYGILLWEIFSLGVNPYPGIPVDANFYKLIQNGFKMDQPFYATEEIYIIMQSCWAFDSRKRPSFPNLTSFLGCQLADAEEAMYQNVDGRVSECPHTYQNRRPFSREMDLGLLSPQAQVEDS

RS4-11 = test: Growth inhibition human RS4-11 cell assessed as reduction in cell viability at 50 uM measured after 72 hrs by CCK8 assay; type: functional
MV4-11 [7] = test: Growth inhibition of human MV4-11 cells assessed as reduction in cell viability at 50 uM measured after 72 hrs by CCK8 assay; type: functional
MV4-11 [8] = test: Growth inhibition of human MV4-11 cells incubated for 72 hrs by CCK-8 assay; type: functional
[9] = biological target: T2, Receptor-type tyrosine-protein kinase FLT3 (Homo sapiens, UniProt P36888, ITD)
Aurora kinase A [10] = biological target: T3, Aurora kinase A (Homo sapiens, UniProt O14965); test: Inhibition of Aurora-A (unknown origin) by kinase-glo luminescent assay
T3 sequence (O14965 whole entry): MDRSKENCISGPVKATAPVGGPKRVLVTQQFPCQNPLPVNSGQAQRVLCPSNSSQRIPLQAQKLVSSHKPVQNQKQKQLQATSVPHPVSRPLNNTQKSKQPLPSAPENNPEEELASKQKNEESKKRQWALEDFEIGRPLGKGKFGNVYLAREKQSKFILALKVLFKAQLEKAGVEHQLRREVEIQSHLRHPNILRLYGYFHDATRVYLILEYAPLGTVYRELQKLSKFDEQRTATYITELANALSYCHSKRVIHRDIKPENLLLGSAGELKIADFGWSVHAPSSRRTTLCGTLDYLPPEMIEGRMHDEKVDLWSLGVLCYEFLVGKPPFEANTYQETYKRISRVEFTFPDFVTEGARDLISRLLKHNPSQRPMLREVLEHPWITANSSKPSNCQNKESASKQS

MV4-11 [11] = test: Cytotoxicity activity against human MV4-11 cells assessed as reduction in cell viability measured after 48 hrs; type: functional, cell-based; conditions: MV4-11, 48 h
MOLM-13 [12] = test: Cytotoxicity activity against human MOLM-13 cells assessed as reduction in cell viability measured after 48 hrs; type: functional, cell-based; conditions: MOLM-13, 48 h
Aurora kinase A [13] = biological target: T3, Aurora kinase A; test: Inhibition of Aurora-A (unknown origin)
MV4-11 [14] = test: cells; conditions: Homo sapiens, MV4-11, 48 h
Description: Antiproliferative activity against human MV4-11 cells assessed as reduction in cell viability after 48 hrs by Alamar Blue assay

MOLM-13 [15] = test: cells; conditions: Homo sapiens, MOLM-13, 72 h; remark: listed apart in the source
Description: Cytotoxicity against human MOLM-13 cells assessed as reduction in cell viability incubated for 72 hrs

HL-60 = test: Growth inhibition of human HL-60 cells incubated for 4 days by WST assay; type: functional; conditions: HL-60, 96 h, time 4 day
MV4-11 [16] = test: Antiproliferative activity against human MV4-11 cells assessed as cell growth inhibition measured after 72 hrs by cell titer-Blue assay; type: functional, cell-based; conditions: MV4-11, 72 h
MOLM-14 [17] = test: Antiproliferative activity against human MOLM-14 cells assessed as cell growth inhibition measured after 72 hrs by cell titer-Blue assay; type: functional, cell-based; conditions: MOLM-14, 72 h
[18] = biological target: T2, Receptor-type tyrosine-protein kinase FLT3; test: Inhibition of FLT3-ITD mutant phosphorylation in human MOLM-14 cell incubated for 2 hrs; type: cell-based
[19] = biological target: Receptor-type tyrosine-protein kinase FLT3 (Homo sapiens, UniProt P36888, D835Y); test: Inhibition of FLT3-D835Y mutant phosphorylation in human MOLM-14 cell incubated for 2 hrs; type: cell-based
BaF3 = test: cells; conditions: Mus musculus, BaF3, 72 h
MOLM-14 [20] = test: cells; conditions: Homo sapiens, MOLM-14, 72 h
[21] = tested on: Receptor-type tyrosine-protein kinase FLT3 (Homo sapiens), P36888 [UNDEFINED MUTATION]
[22] = biological target: Tyrosine-protein kinase JAK2 (Homo sapiens, UniProt O60674); test: Inhibition of JAK2 (unknown origin) in presence of ATP
Chain of Tyrosine-protein kinase JAK2 (O60674 whole entry): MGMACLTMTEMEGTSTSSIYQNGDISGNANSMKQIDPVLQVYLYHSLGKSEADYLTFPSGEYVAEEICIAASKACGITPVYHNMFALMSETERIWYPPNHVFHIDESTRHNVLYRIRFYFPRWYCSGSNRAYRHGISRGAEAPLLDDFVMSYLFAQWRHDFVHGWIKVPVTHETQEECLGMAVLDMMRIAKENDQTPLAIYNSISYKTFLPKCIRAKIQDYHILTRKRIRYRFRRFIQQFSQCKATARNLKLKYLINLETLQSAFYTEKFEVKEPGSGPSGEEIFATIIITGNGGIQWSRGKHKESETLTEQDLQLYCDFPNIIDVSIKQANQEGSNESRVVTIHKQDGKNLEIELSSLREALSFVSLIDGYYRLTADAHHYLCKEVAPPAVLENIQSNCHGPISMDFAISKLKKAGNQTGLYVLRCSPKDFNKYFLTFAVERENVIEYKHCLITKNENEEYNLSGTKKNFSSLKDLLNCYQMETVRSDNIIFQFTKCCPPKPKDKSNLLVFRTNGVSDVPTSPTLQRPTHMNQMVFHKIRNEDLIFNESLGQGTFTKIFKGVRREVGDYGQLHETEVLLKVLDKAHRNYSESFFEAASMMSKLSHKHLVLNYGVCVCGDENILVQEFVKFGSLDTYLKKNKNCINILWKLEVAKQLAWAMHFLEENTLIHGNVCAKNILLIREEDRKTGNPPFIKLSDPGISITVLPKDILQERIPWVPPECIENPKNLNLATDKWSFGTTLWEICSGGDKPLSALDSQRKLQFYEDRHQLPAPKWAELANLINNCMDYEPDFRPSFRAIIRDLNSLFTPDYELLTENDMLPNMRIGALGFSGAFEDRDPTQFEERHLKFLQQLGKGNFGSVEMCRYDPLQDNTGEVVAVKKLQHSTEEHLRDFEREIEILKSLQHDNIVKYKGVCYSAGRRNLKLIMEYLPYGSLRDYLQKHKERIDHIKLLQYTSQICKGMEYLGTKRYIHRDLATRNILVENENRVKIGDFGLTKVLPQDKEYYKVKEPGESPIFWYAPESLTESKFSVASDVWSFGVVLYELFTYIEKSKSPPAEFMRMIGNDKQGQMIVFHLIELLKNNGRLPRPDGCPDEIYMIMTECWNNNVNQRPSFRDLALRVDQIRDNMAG

SMILES: CC(C)Nc1ccnc(Nc2cccc(-c3cccnc3)c2)n1
- EC50 (MV4-11 [1]): 25 nM
- Kd [2]: 3.6 nM

SMILES: C[C@]12O[C@H](C[C@H](O)[C@H]1O)n1c3ccccc3c3c4c(c5c6ccccc6n2c5c31)C(=O)NC4=O
- IC50 (MOLM-13 [3]): 13 nM
- IC50 (MV4-11 [4]): 12.3 nM
- IC50 [5]: 27 nM

SMILES: O=C(c1ccc(CN2CCCCC2)cc1)N1CCc2nc(-c3cc4cc(F)ccc4[nH]c3=O)[nH]c2C1
- IC50 [6]: 0.57 nM
- GI50 (RS4-11): 4860 nM
- GI50 (MV4-11 [7]): 260 nM

SMILES: CC(C)(C)c1cc(NC(=O)Nc2ccc(-n3nc(-c4ccc(OCCN5CCOCC5)cc4)c4c(N)ncnc43)cc2)no1
- GI50 (MV4-11 [8]): < 0.3 nM

SMILES: O=C(c1ccncc1)N1CCc2nc(-c3cc4cc(F)ccc4[nH]c3=O)[nH]c2C1
- IC50 [6]: 2.7 nM
- GI50 (RS4-11): 6300 nM
- GI50 (MV4-11 [7]): 110 nM

SMILES: COc1ccc(C(=O)NC(=O)Nc2ccc3c(c2)NC(=O)/C3=C\c2[nH]c(C)c(C(=O)NCCN3CCCC3)c2C)c(F)c1
- IC50 [9]: 0.5 nM
- IC50 (Aurora kinase A [10]): 0.4 nM

SMILES: CC(=O)OC[C@H]1O[C@@H](N2N=C(C(F)(F)F)/C(=N\Nc3cccc(C(F)(F)F)c3)C2=O)[C@H](OC(C)=O)[C@@H](OC(C)=O)[C@@H]1OC(C)=O
- IC50 (MV4-11 [11]): 4700 nM
- IC50 (MOLM-13 [12]): 4040 nM

SMILES: CC(C)(C)c1cc(NC(=O)Nc2ncc(CCNc3ncnc4[nH]c(-c5ccccc5)cc34)s2)no1
- IC50 (Aurora kinase A [13]): 15 nM
- IC50 [9]: 67 nM
- IC50 (MV4-11 [14]): 7 nM
- IC50 (MOLM-13 [15]): 7 nM

SMILES: CNCCOc1ccc(-c2sc3nc(-c4cccs4)nc(NN4C(=O)C=C(C)C4=O)c3c2C)cc1
- GI50 (MV4-11 [8]): 540 nM
- GI50 (HL-60): 250 nM

SMILES: Cc1ncc(C(=O)Nc2ccc(CN3CCN(C)CC3)c(C(F)(F)F)c2)cc1C#Cc1c(N)ncc2ccc(F)cc12
- IC50 (MV4-11 [16]): 0.5 nM
- IC50 (MOLM-14 [17]): 0.5 nM
- IC50 [18]: 0.5 nM
- IC50 [19]: 16.6 nM

SMILES: COc1cc2c(N3CCN(C(=O)Nc4ccc(OC(C)C)cc4)CC3)ncnc2cc1OCCCN1CCCCC1 [TANDUTINIB]
- IC50 (BaF3): 10 nM
- IC50 (MOLM-13 [3]): 10 nM
- IC50 (MOLM-14 [20]): 10 nM

SMILES: Cc1cc2ncc(-c3ccccc3)nc2cc1C [AG1295]
- IC50 (MV4-11 [14]): 2200 nM
- IC5 [21]: 32 nM

SMILES: Cn1c2ccccc2c2c3c(c4c5ccccc5n(CCC#N)c4c21)CNC3=O [GO-6976]
- IC50 [22]: 67.2 nM
